Measurements as given in ChEMBL document CHEMBL4382224, “Synthesis and evaluation of potent and selective MGL inhibitors as a glaucoma treatment” (Bioorg Med Chem, 2019).
Active and inactive are the calls of the source. The rule behind the calls is not given here.

Tests used:
[1] = target: T1, Fatty-acid amide hydrolase 1 (Rattus norvegicus, UniProt P97612); assay: Inhibition of rat FAAH using AAMCA as substrate by fluorescence assay
T1 sequence (P97612 whole entry): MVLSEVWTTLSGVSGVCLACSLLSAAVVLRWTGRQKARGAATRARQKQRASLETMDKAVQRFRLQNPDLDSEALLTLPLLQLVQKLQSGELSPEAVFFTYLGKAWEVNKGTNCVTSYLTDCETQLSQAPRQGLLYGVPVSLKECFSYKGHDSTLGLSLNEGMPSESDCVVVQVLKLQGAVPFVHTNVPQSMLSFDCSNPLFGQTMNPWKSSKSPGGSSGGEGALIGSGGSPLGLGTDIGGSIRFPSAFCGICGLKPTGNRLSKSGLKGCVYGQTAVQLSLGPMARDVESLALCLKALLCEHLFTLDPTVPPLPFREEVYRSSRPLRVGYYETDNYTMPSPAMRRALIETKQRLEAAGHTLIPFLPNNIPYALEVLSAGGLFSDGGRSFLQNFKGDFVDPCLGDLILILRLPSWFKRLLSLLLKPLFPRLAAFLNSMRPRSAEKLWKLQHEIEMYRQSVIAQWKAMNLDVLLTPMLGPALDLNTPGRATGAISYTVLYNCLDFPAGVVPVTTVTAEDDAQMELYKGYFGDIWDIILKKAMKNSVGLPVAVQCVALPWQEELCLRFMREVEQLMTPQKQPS

[2] = target: Cannabinoid receptor 1 (Rattus norvegicus, UniProt P20272); assay: Displacement of [3H]CP-55,940 from rat CB1 receptor at >1 uM after 1 hr by scintillation counting method
[3] = target: Cannabinoid receptor 2 (Mus musculus) (UniProt P47936); assay: Displacement of [3H]CP-55,940 from recombinant mouse CB2 receptor expressed in HEK293 cells at >1 uM after 1 hr by scintillation counting method; format: cell-based
[4] = target: Cannabinoid receptor 2 (Homo sapiens) (UniProt P34972); assay: Displacement of [3H]CP-55,940 from recombinant human CB2 receptor expressed in HEK293 cells at >1 uM after 1 hr by scintillation counting method; format: cell-based
[5] = target: T2, Monoacylglycerol lipase ABHD6 (Homo sapiens) (UniProt Q9BV23); assay: Inhibition of human ABHD6 at >10 uM
T2 sequence (whole entry): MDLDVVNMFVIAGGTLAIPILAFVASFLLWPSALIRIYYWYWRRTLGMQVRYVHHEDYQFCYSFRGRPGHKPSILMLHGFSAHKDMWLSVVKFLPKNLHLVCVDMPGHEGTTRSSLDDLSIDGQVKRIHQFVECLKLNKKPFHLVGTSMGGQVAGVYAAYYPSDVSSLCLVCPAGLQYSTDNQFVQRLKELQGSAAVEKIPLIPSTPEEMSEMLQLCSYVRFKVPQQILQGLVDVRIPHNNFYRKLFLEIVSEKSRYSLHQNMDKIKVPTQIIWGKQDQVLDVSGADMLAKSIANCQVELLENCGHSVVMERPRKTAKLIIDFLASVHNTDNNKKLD

[6] = Half life in rat liver microsomes pretreated with compounds followed by NADPH addition by LC-MS/MS analysis; format: ADME, Microsome
[7] = Half life in mouse plasma at 200 uM by HPLC analysis; format: ADME, cell-free
[8] = Half life in rat plasma at 200 uM by HPLC analysis; format: ADME, cell-free
[9] = Drug uptake in CD1 mouse brain at 2 mg/kg, iv or 10 mg/kg, po; format: ADME, organism-based; conditions: in vivo
[10] = Half life in human plasma at 200 uM by HPLC analysis; format: ADME, cell-free
[11] = Oral bioavailability in CD1 mouse at 10 mg/kg; format: ADME, organism-based; conditions: in vivo
[12] = Half life in mouse liver microsomes pretreated with compounds followed by NADPH addition by LC-MS/MS analysis; format: ADME, Microsome
[13] = test system: Mus musculus; assay: Anti-glaucoma activity in normotensive C57BL/6J mouse assessed as intraocular pressure at 3 mM administered as single topical treatment measured after 28 hrs by tonometry (reference value: […] +/- 1.1 mmHg); format: functional
[14] = Mean residence time in CD1 mouse at 2 mg/kg, iv or 10 mg/kg, po; format: ADME, organism-based; conditions: in vivo
[15] = Half life in human liver microsomes pretreated with compounds followed by NADPH addition by LC-MS/MS analysis; format: ADME, Microsome

Chain of Cannabinoid receptor 2 (Mus musculus) (P47936 whole entry): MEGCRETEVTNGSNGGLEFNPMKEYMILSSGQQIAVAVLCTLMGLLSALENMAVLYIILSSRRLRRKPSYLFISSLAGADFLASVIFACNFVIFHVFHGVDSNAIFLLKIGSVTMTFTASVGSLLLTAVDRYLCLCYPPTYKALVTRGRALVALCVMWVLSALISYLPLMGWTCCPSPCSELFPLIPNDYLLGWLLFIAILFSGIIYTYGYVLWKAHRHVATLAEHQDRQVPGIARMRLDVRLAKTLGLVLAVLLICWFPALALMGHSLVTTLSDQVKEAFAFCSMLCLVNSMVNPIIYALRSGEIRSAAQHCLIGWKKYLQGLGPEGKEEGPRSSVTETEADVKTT
Chain of Cannabinoid receptor 1 (P20272 whole entry): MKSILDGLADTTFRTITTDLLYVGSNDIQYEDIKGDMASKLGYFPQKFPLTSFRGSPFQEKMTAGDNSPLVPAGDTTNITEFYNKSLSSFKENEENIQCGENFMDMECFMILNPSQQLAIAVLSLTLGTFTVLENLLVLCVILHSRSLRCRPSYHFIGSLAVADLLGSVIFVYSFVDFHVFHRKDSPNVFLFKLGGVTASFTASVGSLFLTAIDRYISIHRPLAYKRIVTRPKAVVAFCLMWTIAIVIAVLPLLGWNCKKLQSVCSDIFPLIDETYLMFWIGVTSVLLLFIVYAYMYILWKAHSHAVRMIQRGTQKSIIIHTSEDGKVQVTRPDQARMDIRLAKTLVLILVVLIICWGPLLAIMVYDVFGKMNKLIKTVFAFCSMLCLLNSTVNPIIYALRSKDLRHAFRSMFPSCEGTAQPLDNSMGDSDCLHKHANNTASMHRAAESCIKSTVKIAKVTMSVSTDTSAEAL
Chain of Cannabinoid receptor 2 (Homo sapiens) (P34972 whole entry): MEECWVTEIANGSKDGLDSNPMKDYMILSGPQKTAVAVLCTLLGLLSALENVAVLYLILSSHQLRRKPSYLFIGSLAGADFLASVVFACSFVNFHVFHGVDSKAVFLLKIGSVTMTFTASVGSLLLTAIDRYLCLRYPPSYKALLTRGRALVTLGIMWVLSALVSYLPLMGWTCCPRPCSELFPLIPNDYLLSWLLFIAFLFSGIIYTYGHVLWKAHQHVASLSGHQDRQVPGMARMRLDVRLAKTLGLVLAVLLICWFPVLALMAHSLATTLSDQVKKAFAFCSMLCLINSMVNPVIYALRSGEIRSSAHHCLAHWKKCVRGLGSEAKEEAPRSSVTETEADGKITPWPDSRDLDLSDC

Compound | IC50 [1] [nM] | Activity [2] | Activity [3] | Activity [4] | inhibition [5] | t1/2 [6] [h] | t1/2 [7] [h] | t1/2 [8] [h] | Drug uptake [9] [%] | t1/2 [10] [h] | bioavailability [11] [%] | t1/2 [12] [h] | Activity [13] [mmHg] | MRT [14] [h] | t1/2 [15] [h]
Cc1cc(C#N)cc(OC(=O)N2CCC(C(c3ccccc3)c3ccccc3)CC2)c1 | > 1000 | Not Active | inactive | inactive | inactive | – | – | – | – | – | – | – | – | – | –
N#Cc1cccc(OC(=O)N2CCN(C3CCCCC3)CC2)c1 | 67 | Not Active | inactive | inactive | inactive | – | – | – | – | – | – | – | – | – | –
N#Cc1cccc(OC(=O)N2CCC(NC(c3ccccc3)c3ccccc3)CC2)c1 | > 1000 | Not Active | inactive | inactive | inactive | – | – | – | – | – | – | – | – | – | –
N#Cc1ccnc(OC(=O)N2CCC(C(c3ccccc3)c3ccccc3)CC2)c1 | > 1000 | Not Active | inactive | inactive | inactive | – | – | – | – | – | – | – | – | – | –
N#Cc1cccc(OC(=O)N2CCN(C(c3ccccc3)c3cccnc3)CC2)c1 (stereo not drawn) | > 1000 | Not Active | inactive | inactive | inactive | – | – | – | – | – | – | – | – | – | –
CC(C)N1CCN(C(=O)Oc2cccc(C#N)c2)CC1 | 68 | Not Active | inactive | inactive | inactive | – | – | – | – | – | – | – | – | – | –
N#Cc1cc(F)cc(OC(=O)N2CCC(C(c3ccccc3)c3ccccc3)CC2)c1 | > 1000 | Not Active | inactive | inactive | inactive | – | – | – | – | – | – | – | – | – | –
N#Cc1ccc(F)c(OC(=O)N2CCC(C(c3ccccc3)c3ccccc3)CC2)c1 | > 1000 | Not Active | inactive | inactive | inactive | – | – | – | – | – | – | – | – | – | –
N#Cc1cccc(OC(=O)N2CCC(S(=O)(=O)C(c3ccccc3)c3ccccc3)CC2)c1 | – | Not Active | inactive | inactive | inactive | – | – | – | – | – | – | – | – | – | –
COc1cc(C#N)cc(OC(=O)N2CCC(C(c3ccccc3)c3ccccc3)CC2)c1 | > 1000 | Not Active | inactive | inactive | inactive | – | – | – | – | – | – | – | – | – | –
N#Cc1cccc(OC(=O)N2CCC(OC(c3ccccc3)c3ccccc3)CC2)c1 | > 1000 | Not Active | inactive | inactive | inactive | – | – | – | – | – | – | – | – | – | –
N#Cc1cc(O)cc(OC(=O)N2CCC(C(c3ccccc3)c3ccccc3)CC2)c1 | > 1000 | Not Active | inactive | inactive | inactive | – | – | – | – | – | – | – | – | – | –
N#Cc1cccc(OC(=O)N2CCN(C(c3ccc(F)cc3)c3ccc(F)cc3)CC2)c1 | > 1000 | Not Active | inactive | inactive | inactive | – | – | – | – | – | – | – | – | – | –
N#Cc1cccc(OC(=O)N2CCC(C(c3ccccc3)c3ccccc3)CC2)n1 | > 1000 | Not Active | inactive | inactive | inactive | – | – | – | – | – | – | – | – | – | –
N#Cc1cccc(OC(=O)N2CCC(C(c3ccc(Cl)cc3)c3ccc(Cl)cc3)CC2)c1 | > 1000 | Not Active | inactive | inactive | inactive | – | – | – | – | – | – | – | – | – | –
N#Cc1cccc(OC(=O)N2CCC(C(c3ccccc3)c3ccccc3)CC2)c1 | > 1000 | Not Active | inactive | inactive | inactive | 0.717 | > 2 | > 2 | 65 | > 2 | 15 | 0.333 | 19.9 | 6 | 2.03
O=C(Oc1ccccc1)N1CCN(C(c2ccccc2)c2ccccc2)CC1 | – | Not Active | inactive | inactive | inactive | – | – | – | – | – | – | – | – | – | –
N#Cc1cccc(OC(=O)N2CCN(C3CC3)CC2)c1 | 63 | Not Active | inactive | inactive | inactive | – | – | – | – | – | – | – | – | – | –
N#Cc1cccc(OC(=O)N2CCN(C3c4ccccc4-c4ccccc43)CC2)c1 | > 1000 | Not Active | inactive | inactive | inactive | – | – | – | – | – | – | – | – | – | –
N#Cc1cccc(OC(=O)N2CCN(C(c3ccccc3)c3ccccc3)CC2)c1 | > 1000 | Not Active | inactive | inactive | inactive | – | – | – | – | – | – | – | – | – | –
